Measured values published in ChEMBL document CHEMBL2429719, “Indolo[3,2-a]carbazoles from a deep-water sponge of the genus Asteropus” (2013).
≈ marks a conversion by molar mass, not a printed value. Calls of active or inactive are those of the source. No cut-off for these calls is given here.

Columns and labels:
[1] = test system: NCI/ADR-RES; test: Cytotoxicity against human NCI/ADR-RES cells at 5 ug/ml after 2 to 3 days by MTT assay; assay type: functional, cell-based
[2] = test system: PANC-1; test: Cytotoxicity against human PANC1 cells at 5 ug/ml after 2 to 3 days by MTT assay; assay type: functional, cell-based
[3] = test system: Staphylococcus aureus; test: Antimicrobial activity against methicillin-resistant Staphylococcus aureus by broth microdilution method; assay type: functional
[4] = test system: Candida albicans; test: Antimicrobial activity against Candida albicans by broth microdilution method; assay type: functional
[5] = test system: Staphylococcus aureus; test: Antimicrobial activity against methicillin-resistant Staphylococcus aureus up to 50 ug/ml by broth microdilution method; assay type: functional, organism-based
[6] = test system: Candida albicans; test: Antimicrobial activity against Candida albicans up to 50 ug/ml by broth microdilution method; assay type: functional, organism-based

Row | SMILES | Activity [1] | Activity [2] | MIC [3] [µg/mL] | MIC [4] [µg/mL] | growth inhibition (GI) [5] | growth inhibition (GI) [6]
1 | Oc1cc2[nH]c3ccc4c5ccc(Br)cc5[nH]c4c3c2cc1O | inactive | inactive | 50 (≈ 136 µM) | 25 (≈ 68.1 µM) |  | 
2 | O=S(=O)(O)Oc1cc2[nH]c3ccc4c5ccc(Br)cc5[nH]c4c3c2cc1O | inactive | inactive |  |  | inactive | inactive
